Reference: ChEMBL document CHEMBL3046151, “Assessment of antithyroid activity of 2,8-disulfanyl-1,9-dihydro-6H-purin-6-one in vitro and in vivo” (2012)
The source made the active and inactive calls. No cut-off for these calls is given here.

Assays:
Rattus norvegicus [1] = assay: Antithyroid activity in Rattus norvegicus Wistar (rat) assessed as cylindrical follicles in thyroid gland at 20 mg/kg, ip for 21 days by microscopic analysis; format: functional, organism-based; set-up: dose 20 mg/kg
Rattus norvegicus [2] = assay: Antithyroid activity in Rattus norvegicus Wistar (rat) assessed as little colloid material in epithelium of thyroid gland at 20 mg/kg, ip for 21 days by microscopic analysis; format: functional, organism-based; set-up: dose 20 mg/kg
Rattus norvegicus [3] = assay: Antithyroid activity in Rattus norvegicus Wistar (rat) assessed as thyroid stimulating hormone level in serum at 20 mg/kg, ip for 21 days measured after 21 days by ELISA (reference value: 1.83 +/- 0.307 microi.u/ml); format: functional; settings: route intraperitoneal
Rattus norvegicus [4] = assay: Antithyroid activity in Rattus norvegicus Wistar (rat) assessed as free thyroxin(T4) level in serum at 20 mg/kg, ip for 21 days measured after 21 days by radioimmunoassay (reference value: 33.171 +/- 0.474 pmol/l); format: functional; settings: route intraperitoneal
Rattus norvegicus [5] = assay: Antithyroid activity in Rattus norvegicus Wistar (rat) assessed as free triiodothyronine(T3) level in serum at 20 mg/kg, ip for 21 days measured after 21 days by radioimmunoassay (reference value: 8.007 +/- 0.167 pmol/l); format: functional; settings: route intraperitoneal
[6] = Binding affinity to iodine assessed as compound-iodine complex formation by spectrophotometry

Cn1ccnc1S [METHIMAZOLE]
Activity (Rattus norvegicus [1]): Active | Activity (Rattus norvegicus [2]): Active | Activity (Rattus norvegicus [3]): 6.014 uIU/ml | Activity (Rattus norvegicus [4]): 25.096 pmol/L | Activity (Rattus norvegicus [5]): 5.162 pmol/L

Oc1[nH]c(S)nc2nc(S)nc1-2
Activity [6]: Active | Activity (Rattus norvegicus [1]): Active | Activity (Rattus norvegicus [2]): Active | Activity (Rattus norvegicus [3]): 8.126 uIU/ml | Activity (Rattus norvegicus [4]): 20.086 pmol/L | Activity (Rattus norvegicus [5]): 4.418 pmol/L
